Experimental data from patent US4281012A, “[4H]-1,3-Benzodioxin-2-carboxylic acids” (Roussel Uclaf, priority 1978, dated 1981).

What was measured:
[1] = Acute toxicity in mice, DL50 dose; settings: mouse, in vivo, ip, intraperitoneal, suspension in aqueous carboxymethylcellulose, observed one week
Description: The acute toxicity was determined on groups of 5 mice weighing about 18 to 22 g and the test products were intraperitoneally administered in suspension in an aqueous carboxymethylcellulose.

[2] = test system: male rats of the Sprague Dawley S.P.F. strain; assay: Hypolipemiant activity in rats on sucrose- and cholesterol-rich regime, % variation of levels versus untreated controls; format: in vivo, rat (Sprague Dawley S.P.F.); settings: 10 days, esophagus tube, vs untreated controls
Description: This test was effected on groups of 8 male rats of the Sprague Dawley S.P.F. strain weighing about 200 g and the animals received a regime containing 50% of saccharose and which was rich in cholesterol (1%). The rats were treated over 10 days with the test products which were administered through an esophagus tube as a suspension in water containing carboxymethylcellulose. The animals were left without food 16 hours after the last administration of the test product and then killed by an abdominal puncture and from the blood sample with sodium heparinate, the levels of triglycerides, cholesterol and total lipids were determined by the following methods.
The triglyceride level was determined by the semiautomatic technique of Kessler et al [Automation in Analytical Chemistry, 1965, p. 341] modified by Claude et al [Ann. Biol. Clin., Vol. 26 3-4 (1968), p. 451]. The cholesterol levels were determined by the technique of Levine [Symposium Technicon, Vol. I, (1967), p. 25] adapted to auto-analyzer system I. The nephelometric level of total lipids was determined semi-automatically by the method of Girard et al. [Symposium Technicon, 1970]. The variations expressed in percentages of the level of triglycerides, cholesterol and total lipids after administration of the various dosage of the test products in the treated animals as compared to the untreated controls and the results are reported in Table I.

Row | SMILES | LD50 at 168 h [1] [mg/kg] | % Variation of levels, Cholesterol ([2]; 5 mg/kg day) [%] | % Variation of levels, Total Lipids ([2]; 5 mg/kg day) [%] | % Variation of levels, Triglycerides ([2]; 5 mg/kg day) [%] | % Variation of levels, Cholesterol ([2]; 50 mg/kg day) [%] | % Variation of levels, Total Lipids ([2]; 50 mg/kg day) [%] | % Variation of levels, Triglycerides ([2]; 50 mg/kg day) [%] | % Variation of levels, Cholesterol ([2]; 2 mg/kg day) [%] | % Variation of levels, Total Lipids ([2]; 2 mg/kg day) [%] | % Variation of levels, Triglycerides ([2]; 2 mg/kg day) [%]
1 | C=CC1(c2ccccc2)OC(C(=O)OC)Oc2ccc(Cl)cc21 (single isomer, unassigned) [Example 22, methyl 6-chloro-4-phenyl-4-ethenyl-[4H]-1,3-benzodioxin-2-carboxylate] | ~700 | -35 | -34 | -79 |  |  |  |  |  | 
2 | COC(=O)C1Oc2ccc(OC)cc2C(C)(c2ccccc2)O1 (single isomer, unassigned) [Example 30, methyl 6-methoxy-4-methyl-4-phenyl-[4H]-1,3-benzodioxin-2-carboxylate] | > 1000 | -43 | -41 | -33 |  |  |  |  |  | 
3 | CCC1(CC)OC(C(=O)O)Oc2ccc(Cl)cc21 (stereo not drawn) [Example 1, 6-chloro-4,4-diethyl-[4H]-1,3-benzodioxin-2-carboxylic acid] | 200 |  |  |  | -37 | -39 | -11 |  |  | 
4 | CC1(C)OC(C(=O)O)Oc2ccc(Cl)cc21 (stereo not drawn) [Example 2, 6-chloro-4,4-dimethyl-[4H]-1,3-benzodioxin-2-carboxylic acid] | 450 |  |  |  | -23 | -28 | -11 |  |  | 
5 | COC(=O)C1Oc2ccc(Cl)cc2C(Cc2ccccc2)(c2ccccc2)O1 (single isomer, unassigned) [Example 32, methyl 6-chloro-4-phenyl-4-benzyl-[4H]-1,3-benzodioxin-2-carboxylate] | > 1000 | -45 | -41 | -11 |  |  |  |  |  | 
6 | COC(=O)C1Oc2ccc(Cl)cc2C(C)(c2cccc(C(F)(F)F)c2)O1 (stereo not drawn) [Example 18] | > 1000 | -41 | -51 | -47 |  |  |  | -30 | -29 | -15
